We go through 13 compounds from patent US20240317745A1, “SIGMA-1 RECEPTOR ANTAGONISTS AND THEIR APPLICATIONS” (Humanwell Pharmaceutical US, Inc., priority 2023, published 2024).

The target of one data set is Sigma-1 receptor (Cavia porcellus (Guinea pig), UniProt Q60492). In words: Sigma-1 receptor binding affinity test ([3H]-(+)-pentazocine displacement, guinea pig cerebral cortex membranes). The note with it: [3H]-(+)-pentazocine 10 nM, 25° C., 180 minutes; read-out: Sigma1R Ki. The method, then:
Guinea pigs (provided by Beijing Vital River Laboratory Animal Technology Co., Ltd.) were decapitated, and the operations were carried out on ice. The cerebral cortex was quickly harvested and pooled into a centrifuge tube. A suitable amount of buffer (0.05M Tris-HCl with 0.32M sucrose) was added to the tube, and the tissue was homogenized using a homogenizer (IKA, Ultra Turrax T25 Digital) at setting 4 for 3˜4 seconds, repeated four times. After homogenization, solution B was added to adjust the volume to 10 mL/g. The weight of the centrifuge tubes was balanced, and then they were centrifuged at 1000 g for 10 minutes using a high-speed refrigerated centrifuge. The supernatant was collected and adjusted to 2 mL/g with solution B, followed by centrifugation at 1000 g and 4° C. for 10 minutes. The supernatant was then centrifuged at 18000 rpm and 4° C. for 25 minutes. The pellet was resuspended in solution B to a final volume of 3 mL/g and incubated in a water bath at 25° C. for 15 minutes. After incubation, the suspension was centrifuged at 18000 rpm and 4° C. for 45 minutes. The pellet was stored at −80° C. for future use.
An appropriate amount of homogenization buffer was added to the prepared membrane, and was dispersed into a suspension using a homogenizer, protein concentration was measured to be 4 mg/ml. 100 micrograms of protein were added to each well of a 96-well plate, with a volume of 90 μl. […] [3H]-(+)-pentazocine (Perkin-Elmer, Cat #NET1056250UC) was added to each well (final concentration of 10 nM). The 96-well plate was incubated in a constant temperature water bath (25° C., 180 minutes). […] After washing, the samples were dried in a 37° C. oven.

In data set [1] the test system is motor balance ability of rats. Nature of the data set: Rat rotarod test (motor balance ability). Format: in vivo. The note with it: 15 rpm. Here is the method:
Placing rats on a continuously rotating rod causes them to move immediately in the opposite direction of the rod's motion. […] During the formal experiment, the time the rats stay on the rotarod is used as an indicator to measure their motor balance ability. This experiment aims to explore the impact of compound 37 at doses ranging from 10 to 300 mg/kg on the motor balance ability of rats in the rotarod test.
After administration of the test substance to the rats, they are placed on the rotarod fatigue tester, and the average time spent on the rod after three tests is recorded and analyzed.
Calculate the Maximum Possible Effect on Motor Balance Ability %: Maximum Possible Effect on Motor Balance Ability %=(1−test group/vehicle)×100%
Note: The motor balance ability of the vehicle group is considered as 0%, and the Maximum Possible Effect on Motor Balance Ability % for each group is calculated based on this standard.
A general note: The rotarod test checks motor coordination on a turning rod.

Data set [2] relates to Spinal Nerve Ligation (SNL) model. In words: Spinal Nerve Ligation (SNL) model, mechanical pain threshold by Von Frey filaments. Format: in vivo. The note with it: rat, oral administration (i.g.), 100 mg/kg, mechanical pain threshold ipsilateral hind paw. An excerpt: It is a type of chronic pain characterized by features such as spontaneous pain, hyperalgesia, abnormal pain, and sensory disturbances. Following nerve damage, neuropathic pain can persist, and its characteristics include hypersensitive responses to stimuli […], the presence of abnormal sensations (allodynia), and painful responses to non-harmful stimuli […]. The Spinal Nerve Ligation (SNL) model involves the tight ligation of the L5 and L6 spinal nerves using sutures.
In this experiment, pregabalin at a dose of 100 mg/kg was used as a positive control to compare the analgesic effect of the test compound. After administration, the mechanical pain threshold in the ipsilateral hind paw of the rat was tested using Von Frey filaments. The change in mechanical pain threshold before and after administration was used to determine whether the test compound at 100 mg/kg has a neuropathic pain-relieving effect in the SNL model.

Counter-ions that a name gives are not always drawn.

Sequence of Sigma-1 receptor (Q60492 whole entry): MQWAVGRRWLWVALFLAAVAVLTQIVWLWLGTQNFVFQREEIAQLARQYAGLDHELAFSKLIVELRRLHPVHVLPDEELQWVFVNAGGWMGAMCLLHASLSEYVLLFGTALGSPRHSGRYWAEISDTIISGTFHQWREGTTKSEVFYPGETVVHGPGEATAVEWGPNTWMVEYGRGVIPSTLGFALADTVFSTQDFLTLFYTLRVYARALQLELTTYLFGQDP

A word on the Ki: it is a dissociation constant, usually derived from enzyme kinetics or from competition with a known ligand. As for `Fc1ccc(-c2cc(CN3CCOCC3)on2)cc1F` [Compound 19], at Sigma-1 receptor, the Ki was found to be 172 nM. For `Fc1ccc(-c2cc(CN3CC[Se]CC3)on2)cc1F` [Compound 20], the Ki at Sigma-1 receptor is 48.9 nM. As to `OC1CCN(Cc2cc(-c3ccc(F)c(F)c3)no2)CC1` [Compound 37], the “change in the time spent on the rotarod compared to the vehicle” value in data set [1] (oral 15 minutes prior, 10-300 mg/kg) is recorded as “no significant change”. Besides, the “Maximum Possible Effect on Motor Balance Ability” value in data set [1] (oral 15 minutes prior, first of four doses in 10-300 mg/kg) is −6%; in data set [1] (oral 15 minutes prior, fourth of four doses in 10-300 mg/kg) it was −6%; in data set [1] (oral 15 minutes prior, second of four doses in 10-300 mg/kg) it was 11%; in data set [1] (oral 15 minutes prior, third of four doses in 10-300 mg/kg), −6%. Consider `O[C@H]1CCN(Cc2cc(-c3ccc(F)c(F)c3)no2)C1` [Compound 38], for which the inhibitory constant (Ki) at Sigma-1 receptor came out at 378 nM. Regarding `OC[C@H]1CCCN1Cc1cc(-c2ccc(F)c(F)c2)no1` [Compound 40], the inhibitory constant (Ki) on Sigma-1 receptor was found to be 190 nM. As for `OC[C@@H]1CCCN1Cc1cc(-c2ccc(F)c(F)c2)no1` [Compound 41], the Ki at Sigma-1 receptor stood at 34 nM.

Consider `O[C@@H]1CCN(Cc2cc(-c3ccc(Cl)c(Cl)c3)no2)C1` [Compound 43], for which, at Sigma-1 receptor, the inhibitory constant (Ki) was 7.97 nM.

`OC[C@H]1CCCN1Cc1cc(-c2ccc(Cl)c(Cl)c2)no1` [Compound 44]: the inhibition constant Ki at Sigma-1 receptor worked out at 19 nM. With `OCCC1CCN(Cc2cc(-c3ccc(Cl)c(Cl)c3)no2)CC1` [Compound 47], the inhibition constant Ki on Sigma-1 receptor is 0.74 nM. Still for that read-out and setting: the value for `CC1COCC(C)N1CCOCc1cc(-c2ccc(Cl)c(Cl)c2)no1` (centres unmarked) [Compound 77] was 14.9 nM; that for `O=C1CCN(Cc2cc(-c3ccc(F)c(F)c3)no2)CC1` [Compound 88] was 959 nM. On to `CC(C)C[C@H](CN)CC(=O)O` [Pregabalin, pregabalin], for which the “analgesic activity in the SNL model” value in data set [2] is “some analgesic activity”. As to `Cc1cccc([C@H](C)c2cnc[nH]2)c1C` [dexmedetomidine hydrochloride injection, dexmedetomidine hydrochloride, reference compound], the “Maximum Possible Effect on Motor Balance Ability” value in data set [1] (subcutaneous injection 30 μg/kg, 15 minutes prior, vs vehicle) amounted to 62%.
